This is an account of results in US20230031406A1, “COMPOUNDS AND COMPOSITIONS FOR TREATING CONDITIONS ASSOCIATED WITH NLRP ACTIVITY” (Novartis AG, priority 2018, published 2023).

Like-named read-outs stand apart in the source and are kept apart here.

This assay concerns PMA-differentiated THP-1 cells. Nature of the assay: hTHP-1 assay containing 10% fetal bovine serum (IL-1β production, Tables B5 and B6). It is filed as cell-based, human. The procedure:
The following protocol is suitable for testing the activity of the compounds disclosed herein. Procedure 1: IL-1β Production in PMA-Differentiated THP-1 Cells Stimulated with Gramicidin.
THP-1 cells were purchased from the American Type Culture Collection and sub-cultured according to instructions from the supplier. Cells were cultured in complete RPMI 1640 (containing 10% heat inactivated FBS, penicillin (100 units/ml) and streptomycin (100 μg/ml)), and maintained in log phase prior to experimental setup. Prior to the experiment, compounds were dissolved in dimethyl sulfoxide (DMSO) to generate a 30 mM stock. The compound stock was first pre-diluted in DMSO to 3, 0.34, 0.042 and 0.0083 mM intermediate concentrations and subsequently spotted using Echo550 liquid handler into an empty 384-well assay plate to achieve desired final concentration (e.g. 100, 33, 11, 3.7, 1.2, 0.41, 0.14, 0.046, 0.015, 0.0051, 0.0017 μM). DMSO was backfilled in the plate to achieve a final DMSO assay concentration of 0.37%. The plate was then sealed and stored at room temperature until required.
THP-1 cells were treated with PMA (Phorbol 12-myristate 13-acetate) (20 ng/ml) for 16-18 hours. On the day of the experiment the media was removed and adherent cells were detached with trypsin for 5 minutes. […] The cells were plated in the 384-well assay plate containing the spotted compounds at a density of 50,000 cells/well (final assay volume 50 μl). Cells were incubated with compounds for 1 hour and then stimulated with gramicidin (5 μM) (Enzo) for 2 hours. Plates were then centrifuged at 340 g for 5 min. Cell free supernatant (40 μL) was collected using a 96—CHannel PlateMaster (Gilson) and the production of IL-1β was evaluated by HTRF (cisbio). The plates were incubated for 18 h at 4° C. and read using the preset HTRF program (donor emission at 620 nm, acceptor emission at 668 nm) of the SpectraMax i3x spectrophotometer (Molecular Devices, software SoftMax 6). A vehicle only control and a dose titration of CRID3 (100-0.0017 μM) were run concurrently with each experiment.
Procedure 2: IL-1β Production in PMA-Differentiated THP-1 Cells Stimulated with Gramicidin.
THP-1 cells were purchased from the American Type Culture Collection and sub-cultured according to instructions from the supplier. Prior to experiments, cells were cultured in complete RPMI 1640 (containing 10% heat inactivated FBS, penicillin (100 units/ml) and streptomycin (100 μg/ml)), and maintained in log phase prior to experimental setup. Prior to the experiment THP-1 were treated with PMA (Phorbol 12-myristate 13-acetate) (20 ng/ml) for 16-18 hours. Compounds were dissolved in dimethyl sulfoxide (DMSO) to generate a 30mM stock. On the day of the experiment the media was removed and adherent cells were detached with trypsin for 5 minutes. […] The cells were plated in a 384-well plate at a density of 50,000 cells/well (final assay volume […]). Compounds were first dissolved in assay medium to obtain a 5× top concentration of 500 μM. 10 step dilutions (1:3) were then undertaken in assay medium containing 1.67% DMSO. 5× compound solutions were added to the culture medium to achieve desired final concentration (e.g. 100, 33, 11, 3.7, 1.2, 0.41, 0.14, 0.046, 0.015, 0.0051, 0.0017 μM). Final DMSO concentration was at 0.37%. Cells were incubated with compounds for 1 hour and then stimulated with gramicidin (5 μM) (Enzo) for 2 hours. Plates were then centrifuged at 340 g for 5 min. Cell free supernatant (40 μL) was collected using a 96—CHannel PlateMaster (Gilson) and the production of IL-1β was evaluated by HTRF (cisbio). A vehicle only control and a dose titration of CRID3 (100-0.0017 μM) were run concurrently with each experiment.
Tables B1, B2, B3, and B4 show the biological activity of compounds in hTHP-1 assay containing 2% fetal bovine serum. […] Key: <0.008 μM=“++++++”; ≥0.008 and <0.04 μM=“+++++”; >0.04 and <0.2 μM=“++++”; ≥0.2 and <1 μM=“+++”; ≥1 and <5 μM=“++”; ≥5 and <30 μM=“+”. […]

Where [1] appears, read: Homo sapiens, THP-1, read-out: hTHP-1 IC50 in 10% FBS, hTHP-1 assay containing 10% fetal bovine serum, Table B5.
Setting [2] is: Homo sapiens, THP-1, read-out: hTHP-1 IC50 in 10% FBS, hTHP-1 assay containing 10% fetal bovine serum, Table B6.

The term IC50 denotes the concentration that gives 50% inhibition. As for `Cc1c(C(F)(F)F)nc2c(c1NC(=O)N=S(N)(=O)c1cnc(C(F)F)s1)CCC2` (stereo not shown) [Compound 1007, 2-(Difluoromethyl)-N′-((3-methyl-2-(trifluoromethyl)-6,7-dihydro-5H-cyclopenta[b]pyridin-4-yl)carbamoyl)thiazole-5-sulfonimidamide], the IC50 under setting [1] fell in the range of 5000 to 30000 nM.
As to `CCn1cc(F)c(S(N)(=O)=NC(=O)Nc2c3c(nc(C(F)(F)F)c2-c2ccc(F)c(F)c2)CCC3)n1` (single isomer, unassigned) [Compound 1113b, (R) or (S)-N′-((3-(3,4-difluorophenyl)-2-(trifluoromethyl)-6,7-dihydro-5H-cyclopenta[b]pyridin-4-yl)carbamoyl)-1-ethyl-4-fluoro-1H-pyrazole-3-sulfonimidamide], the half-maximal inhibitory concentration (IC50) (read-out: hTHP-1 IC50 in 10% FBS, hTHP-1 assay containing 10% fetal bovine serum, Table B5, listed as 837) lay within 8 to 40 nM.
For the compound `CC(F)(F)n1cc(F)c(S(N)(=O)=NC(=O)Nc2c3c(nc4c2CCC4)CCC3)n1` (single isomer, unassigned) [Compound 1115b, (S) or (R)-1-(1,1-difluoroethyl)-4-fluoro-N′-((1,2,3,5,6,7-hexa-hydrodicyclopenta[b,e]pyridin-8-yl)carbamoyl)-1H-pyrazole-3-sulfonimidamide], under “read-out: hTHP-1 IC50 in 10% FBS, hTHP-1 assay containing 10% fetal bovine serum, Table B5, listed as 847”, the half-inhibitory concentration (IC50) was in the range of 5000 to 30000 nM.
With `Cc1nc2c(c(NC(=O)N=S(N)(=O)c3scc(C(C)(C)O)c3F)c1-c1ccccc1)CCC2` (stereo not shown) [Compound 1110, 3-Fluoro-4-(2-hydroxy-propan-2-yl)-N′-((2-methyl-3-phenyl-6,7-dihydro-5H-cyclopenta [b]pyridin-4-yl)carbamoyl)thiophene-2-sulfonimidamide], the IC50 under setting [1] lay in the range of 40 to 200 nM.
As to `CC(C)(O)c1csc(S(N)(=O)=NC(=O)Nc2c3c(nc(C4CC4)c2C2CC2)CCC3)c1F` (single isomer, unassigned) [Compound 1106b, (S) or (R)-N′-((2,3-dicyclopropyl-6,7-dihydro-5H-cyclopenta[b]pyridin-4-yl)carbamoyl)-3-fluoro-4-(2-hydroxypropan-2-yl)thiophene-2-sulfonimidamide], where the note is “read-out: hTHP-1 IC50 in 10% FBS, hTHP-1 assay containing 10% fetal bovine serum, Table B5, listed as 831”, the IC50 is 1000 to 5000 nM.
Turning to `CCn1cc(F)c(S(N)(=O)=NC(=O)Nc2c3c(nc(C(F)(F)F)c2C(F)(F)F)CCC3)n1` (stereo not shown) [Example 856, N′-((2,3-bis(trifluoromethyl)-6,7-dihydro-5H-cyclopenta[b]pyridin-4-yl)carbamoyl)-1-ethyl-4-fluoro-1H-pyrazole-3-sulfonimidamide], under setting [2], the half-inhibitory concentration (IC50) fell in the range of 40 to 200 nM.
As for `CC(C)(O)c1csc(S(N)(=O)=NC(=O)Nc2c3c(nc4c2CCC4)CCC3)c1F` (single isomer, unassigned) [Compound 1107b, (S) or (R)-3-fluoro-N′-((1,2,3,5,6,7-hexahydrodicyclopenta[b,e]pyridin-8-yl)carbamoyl)-4-(2-hydroxypropan-2-yl)thiophene-2-sulfonimidamide], under “read-out: hTHP-1 IC50 in 10% FBS, hTHP-1 assay containing 10% fetal bovine serum, Table B5, listed as 839”, the IC50 lay within 1000 to 5000 nM.
Take `Cc1c(C(F)(F)F)nc2c(c1NC(=O)N=S(N)(=O)c1cnc(C(F)F)s1)CCC2` (single isomer, unassigned) [Compound 1007b, (S) or (R)-2-(Difluoromethyl)-N′-((3-methyl-2-(trifluoromethyl)-6,7-dihydro-5H-cyclopenta[b]pyridin-4-yl)carbamoyl)thiazole-5-sulfonimidamide]: under “read-out: hTHP-1 IC50 in 10% FBS, hTHP-1 assay containing 10% fetal bovine serum, Table B5, listed as 828”, the half-maximal inhibitory concentration (IC50) was in the range of 5000 to 30000 nM.
Turning to `CCn1cc(F)c(S(N)(=O)=NC(=O)Nc2c(C)c(C(F)(F)F)nc3c2CC(C)C3)n1` (single isomer, unassigned) [Compound 1101e, (R, S) or (R, R)-N′-((3,6-dimethyl-2-(trifluoromethyl)-6,7-dihydro-5H-cyclopenta[b]pyridin-4-yl)carbamoyl)-1-ethyl-4-fluoro-1H-pyrazole-3-sulfonimidamide], the 50% inhibitory concentration (IC50) (read-out: hTHP-1 IC50 in 10% FBS, hTHP-1 assay containing 10% fetal bovine serum, Table B5, listed as 825) is 8 to 40 nM.
`NS(=O)(=NC(=O)Nc1c2c(nc3c1CCC3)CCC2)c1nn(C2CC2)cc1F` (single isomer, unassigned) [Example 863, (R) or (S)-1-cyclopropyl-4-fluoro-N′-((1,2,3,5,6,7-hexahydrodicyclopenta[b,e]pyridin-8-yl)carbamoyl)-1H-pyrazole-3-sulfonimidamide]: the concentration for half-maximal inhibition (IC50) (read-out: hTHP-1 IC50 in 10% FBS, hTHP-1 assay containing 10% fetal bovine serum, Table B6) was in the range of 40 to 200 nM.
`C[C@@H]1CCc2c1nc1c(c2NC(=O)N=S(N)(=O)c2nn(C(C)(F)F)cc2F)CCC1` (single isomer, unassigned) [Compound 1117a, (R) or (S)-1-(1,1-difluoroethyl)-4-fluoro-N′-(((R)-3-methyl-1,2,3,5,6,7-hexahydrodicyclopenta[b,e]pyridin-8-yl)carbamoyl)-1H-pyrazole-3-sulfonimidamide]: the 50% inhibitory concentration (IC50) (read-out: hTHP-1 IC50 in 10% FBS, hTHP-1 assay containing 10% fetal bovine serum, Table B5, listed as 850) is 8 to 40 nM.
On to `Cc1c(C(F)(F)F)nc2c(c1NC(=O)N=S(N)(=O)c1nn(C3CC3)cc1F)CCC2` (stereo not shown) [Compound 1114, 1-Cyclopropyl-4-fluoro-N′-((3-methyl-2-(trifluoromethyl)-6,7-dihydro-5H-cyclopenta [b]pyridin-4-yl)carbamoyl)-1H-pyrazole-3-sulfonimidamide], for which the IC50 under setting [1] fell in the range of 40 to 200 nM.
For the compound `Cc1c(C(F)(F)F)nc2c(c1NC(=O)N=S(N)(=O)c1nn(C(C)(F)F)cc1F)CCC2` (stereo not shown) [Compound 1004, 1-(1,1-Difluoroethyl)-4-fluoro-N′-((3-methyl-2-(trifluoromethyl)-6,7-dihydro-5H-cyclopenta [b]pyridin-4-yl)carbamoyl)-1H-pyrazole-3-sulfonimidamide], the IC50 under setting [1] is 200 to 1000 nM.
On to `C[C@@H]1CCc2c1nc1c(c2NC(=O)N=S(N)(=O)c2nn(C(C)(F)F)cc2F)CCC1` (single isomer, unassigned) [Compound 1117b, (S) or (R)-1-(1,1-difluoroethyl)-4-fluoro-N′-(((R)-3-methyl-1,2,3,5,6,7-hexahydrodicyclopenta[b,e]pyridin-8-yl)carbamoyl)-1H-pyrazole-3-sulfonimidamide], for which the IC50 (read-out: hTHP-1 IC50 in 10% FBS, hTHP-1 assay containing 10% fetal bovine serum, Table B5, listed as 851) is 200 to 1000 nM.
Regarding `NS(=O)(=NC(=O)Nc1c2c(nc3c1CCC3)CCC2)c1nn(C2CC2)cc1F` (stereo not shown) [Example 858, 1-Cyclopropyl-4-fluoro-N′-((1,2,3,5,6,7-hexahydrodicyclopenta[b,e]pyridin-8-yl)carbamoyl)-1H-pyrazole-3-sulfonimidamide], the concentration for half-maximal inhibition (IC50) under setting [2] fell in the range of 40 to 200 nM.
For the compound `CC(C)(O)c1csc(S(N)(=O)=NC(=O)Nc2c3c(nc4c2CCC4)CCC3)c1F` (stereo not shown) [Compound 1107, 3-Fluoro-N′-((1,2,3,5,6,7-hexahydrodicyclopenta [b,e]pyridin-8-yl)carbamoyl)-4-(2-hydroxypropan-2-yl)thiophene-2-sulfonimidamide], the 50% inhibitory concentration (IC50) under setting [1] fell in the range of 40 to 200 nM.
